Paper PMC4650713, “Crystal structure of Bax bound to the BH3 peptide of Bim identifies important contacts for interaction” (Cell Death & Disease, 2015)
Where no end group is shown, it is not given here.

How the values were obtained:
BaxΔC21 [1] = molecular target: T1, BaxΔC21 (Homo sapiens, UniProt Q07812, C126S/C62S); experiment: Bax binding assay: SPR, BH3 peptides displacing BaxΔC from a BimBH3 chip; conditions: SPR competition, 0.5% octylglucoside
T1 construct: made in house; host or cells: Escherichia coli BL21(DE3) or ER2566
Method: Bax binding assays were performed using a protocol modified from that described previously.[18] […] IC50 values were calculated with GraphPad Prism (GraphPad Software, La Jolla, CA, USA).

BaxΔC21 [2] = experiment: Core/latch dimer formation of BaxΔC21 with CHAPS and BH3 peptide, analysed by SEC; type: biochemical; conditions: BaxΔC21 2 mg/ml, twofold molar excess of peptide, 1% CHAPS, 1 h at room temperature
full-length Bax = experiment: Liposome permeabilisation (carboxy-fluorescein release) by full-length Bax in response to BH3 peptides; type: biochemical; conditions: liposomes 4 μg/ml, 50 nM full-length Bax, 500 nM BH3 peptide, 1 h at RT; three independent experiments
Method: The suspension was extruded through a 100 nm pore size membrane and then passed over a PD10 column to remove unincorporated dye. Liposomes at 4 μg/ml were incubated with 50 nM full-length Bax and 500 nM BH3 peptide in SUV buffer for 1 h at RT. Fluorescence of released self-quenching 5(6)-carboxy-fluorescein was measured with an excitation wavelength of 485 nm and emission wavelength of 535 nm.

[3] = test system: mitochondria isolated from Bak−/− Bax−/− mouse embryonic fibroblasts (MEFs) ectopically expressing BaxS184L; experiment: Cytochrome c release from isolated mitochondria; type: cell-based; conditions: immunoblot of supernatant and pellet, representative of two independent experiments
Method: To test whether this change in binding affinity influenced apoptotic activity, we assessed the ability of each peptide to induce cytochrome c release from mitochondria isolated from Bak^−/− Bax^−/− mouse embryonic fibroblasts (MEFs) ectopically expressing the mitochondrially targeted Bax variant BaxS184L.[28]
BaxS184L was stably expressed in Bax^−/− Bak^−/− MEFs and cytochrome c release assays were performed as described for Bak.[23] Supernatant and pellet fractions were separated and analysed for cytochrome c by immunoblotting.

T1 sequence (Q07812 1-171 C62S/C126S): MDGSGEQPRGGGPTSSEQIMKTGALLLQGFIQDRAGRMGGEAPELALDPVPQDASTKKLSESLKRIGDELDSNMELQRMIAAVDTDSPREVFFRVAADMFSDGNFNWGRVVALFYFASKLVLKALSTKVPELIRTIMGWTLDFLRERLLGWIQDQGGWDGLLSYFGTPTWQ

## SESQEDIIRNIARHLRQVGDSMDRSIPPGLVNGL [BidBH3 A91R]
BaxΔC21 [1]
  binding to BaxΔC21 in the SPR assay: behaved similar to BimBH3
BaxΔC21 [2]
  ability to trigger core/latch dimer formation of BaxΔC21: largely unaffected
full-length Bax
  capacity to activate Bax in liposome permeabilisation assay: enhanced activity over BidBH3
[3]
  potency at releasing cytochrome c from mitochondria: at best a marginally more effective than BidBH3
